# Reference: ChEMBL document CHEMBL3044932, “In vitro cytotoxicity evaluation of diversely substituted N-aryl-2-oxindoles” (2013)
# What was measured:
# Format in all cases: functional
# [1] = system: MIA PaCa-2; test: Cytotoxicity against Homo sapiens (human) MIAPaCa2 cells after 72 hr by MTT assay; conditions: MIA PaCa-2, 72 h, read-out: ED50 (the source's name)
# [2] = system: KB; test: Cytotoxicity against Homo sapiens (human) KB cells after 72 hr by MTT assay; conditions: read-out: ED50 (the source's name)
# [3] = system: L132; test: Cytotoxicity against Homo sapiens (human) L-132 cells after 72 hr by MTT assay; conditions: L132, 72 h, read-out: ED50 (the source's name)
# [4] = system: HuTu80; test: Cytotoxicity against Homo sapiens (human) HuTu 80 cells after 72 hr by MTT assay; conditions: HuTu80, 72 h, read-out: ED50 (the source's name)
# [5] = system: MOLT-4; test: Cytotoxicity against Homo sapiens (human) MOLT4 cells after 72 hr by MTT assay; conditions: MOLT-4, 72 h, read-out: ED50 (the source's name)
# [6] = system: B16-F10; test: Cytotoxicity against Homo sapiens (human) B16F10 cells after 72 hr by MTT assay; conditions: Mus musculus, B16-F10, 72 h; read-out: ED50 (the source's name)
# [7] = system: MCF7; test: Cytotoxicity against Homo sapiens (human) MCF7 cells after 72 hr by MTT assay; conditions: MCF7, 72 h, read-out: ED50 (the source's name)
smiles,measurement,setting,value
O=C1/C(=C\c2cccc(Br)c2)c2ccccc2N1c1c(Cl)cccc1Cl,EC50,[1],5 µg/mL
same,EC50,[2],2 µg/mL
same,EC50,[3],19 µg/mL
same,EC50,[4],7 µg/mL
same,EC50,[5],7 µg/mL
same,EC50,[6],8 µg/mL
same,EC50,[7],5 µg/mL
O=C1/C(=C\c2ccccc2Cl)c2ccccc2N1c1c(Cl)cccc1Cl,EC50,[1],> 100 µg/mL
same,EC50,[2],5 µg/mL
same,EC50,[3],> 100 µg/mL
same,EC50,[4],> 100 µg/mL
same,EC50,[5],7 µg/mL
same,EC50,[6],39 µg/mL
same,EC50,[7],9 µg/mL
Cc1ccc2nc(Cl)c(/C=C3\C(=O)N(c4c(Cl)cccc4Cl)c4ccccc43)cc2c1,EC50,[2],100 µg/mL
same,EC50,[7],> 100 µg/mL
O=C1/C(=C\c2cccc(Cl)c2)c2ccccc2N1c1c(Cl)cccc1Cl,EC50,[1],5 µg/mL
same,EC50,[2],2 µg/mL
same,EC50,[3],16 µg/mL
same,EC50,[4],7 µg/mL
same,EC50,[5],6 µg/mL
same,EC50,[6],8 µg/mL
Cc1ccc2nc(Cl)c(/C=C3\C(=O)N(c4c(Cl)cccc4Cl)c4ccccc43)cc2c1C,EC50,[2],10 µg/mL
same,EC50,[3],98 µg/mL
same,EC50,[4],< 1 µg/mL
same,EC50,[6],> 100 µg/mL
same,EC50,[7],> 100 µg/mL
O=C1/C(=C\c2ccccc2)c2ccccc2N1c1c(Cl)cccc1Cl,EC50,[1],> 100 µg/mL
same,EC50,[2],10 µg/mL
same,EC50,[3],> 100 µg/mL
same,EC50,[4],8 µg/mL
same,EC50,[5],7 µg/mL
same,EC50,[6],9 µg/mL
same,EC50,[7],10 µg/mL
CN(C)c1ccc(/C=C2\C(=O)N(c3c(Cl)cccc3Cl)c3ccccc32)cc1,EC50,[1],> 100 µg/mL
same,EC50,[2],15 µg/mL
same,EC50,[3],> 100 µg/mL
same,EC50,[4],< 1 µg/mL
same,EC50,[6],> 100 µg/mL
same,EC50,[7],> 100 µg/mL
O=C1/C(=C\c2ccc(Cl)cc2)c2ccccc2N1c1c(Cl)cccc1Cl,EC50,[1],5 µg/mL
same,EC50,[2],2 µg/mL
same,EC50,[3],9 µg/mL
same,EC50,[4],6 µg/mL
same,EC50,[6],> 100 µg/mL
same,EC50,[7],5 µg/mL
O=C1Cc2ccccc2N1c1c(Cl)cccc1Cl,EC50,[1],> 100 µg/mL
same,EC50,[2],100 µg/mL
same,EC50,[3],> 100 µg/mL
same,EC50,[4],> 100 µg/mL
same,EC50,[6],> 100 µg/mL
same,EC50,[7],> 100 µg/mL
O=C1/C(=C\c2ccccc2[N+](=O)[O-])c2ccccc2N1c1c(Cl)cccc1Cl,EC50,[1],5 µg/mL
same,EC50,[2],1 µg/mL
same,EC50,[3],10 µg/mL
same,EC50,[4],10 µg/mL
same,EC50,[5],6 µg/mL
same,EC50,[6],> 100 µg/mL
O=C1/C(=C\c2cccc3ccccc23)c2ccccc2N1c1c(Cl)cccc1Cl,EC50,[1],> 100 µg/mL
same,EC50,[2],> 100 µg/mL
same,EC50,[3],> 100 µg/mL
same,EC50,[4],10 µg/mL
same,EC50,[6],> 100 µg/mL
same,EC50,[7],> 100 µg/mL
O=C1/C(=C\c2ccco2)c2ccccc2N1c1c(Cl)cccc1Cl,EC50,[1],10 µg/mL
same,EC50,[2],5 µg/mL
same,EC50,[3],> 100 µg/mL
same,EC50,[4],18 µg/mL
same,EC50,[6],> 100 µg/mL
same,EC50,[7],> 100 µg/mL
O=C1/C(=C\c2cc3ccccc3nc2Cl)c2ccccc2N1c1c(Cl)cccc1Cl,EC50,[1],5 µg/mL
same,EC50,[2],10 µg/mL
same,EC50,[7],> 100 µg/mL
O=C1/C(=C\c2c(Cl)cccc2Cl)c2ccccc2N1c1c(Cl)cccc1Cl,EC50,[1],> 100 µg/mL
same,EC50,[2],50 µg/mL
same,EC50,[3],> 100 µg/mL
same,EC50,[4],100 µg/mL
same,EC50,[6],> 100 µg/mL
same,EC50,[7],> 100 µg/mL
COc1ccc(/C=C2\C(=O)N(c3c(Cl)cccc3Cl)c3ccccc32)cc1OC,EC50,[1],5 µg/mL
same,EC50,[2],10 µg/mL
same,EC50,[3],> 100 µg/mL
same,EC50,[4],< 1 µg/mL
same,EC50,[6],> 100 µg/mL
same,EC50,[7],10 µg/mL
O=C1/C(=C\c2ccc(F)cc2)c2ccccc2N1c1c(Cl)cccc1Cl,EC50,[1],5 µg/mL
same,EC50,[2],5 µg/mL
same,EC50,[3],13 µg/mL
same,EC50,[4],8 µg/mL
same,EC50,[6],38 µg/mL
same,EC50,[7],9 µg/mL
COc1ccc(/C=C2\C(=O)N(c3c(Cl)cccc3Cl)c3ccccc32)cc1,EC50,[1],> 100 µg/mL
same,EC50,[2],> 100 µg/mL
same,EC50,[3],> 100 µg/mL
same,EC50,[4],> 100 µg/mL
same,EC50,[6],> 100 µg/mL
same,EC50,[7],> 100 µg/mL
O=C1/C(=C\c2cccc(Oc3ccccc3)c2)c2ccccc2N1c1c(Cl)cccc1Cl,EC50,[1],> 100 µg/mL
same,EC50,[2],5 µg/mL
same,EC50,[3],24 µg/mL
same,EC50,[4],10 µg/mL
same,EC50,[5],6 µg/mL
same,EC50,[6],> 100 µg/mL
same,EC50,[7],100 µg/mL
O=C1/C(=C\c2ccc(O)cc2)c2ccccc2N1c1c(Cl)cccc1Cl,EC50,[1],2 µg/mL
same,EC50,[2],2 µg/mL
same,EC50,[3],30 µg/mL
same,EC50,[4],25 µg/mL
same,EC50,[6],33 µg/mL
same,EC50,[7],20 µg/mL
